The results in this text go back to paper PMC10389763, “BlaPSZ-1, a novel AmpC gene identified from a Pantoea isolate” (Frontiers in Microbiology, 2023).

The structures appear in SMILES notation.

A word on the IC50: it is the midpoint of a concentration-inhibition curve. A higher IC50 goes with weaker potency in that assay.

The assay concerns the target T1, PSZ-1 (AmpC β-lactamase).
T1 construct: gene blaPSZ-1; recombinant PSZ-1 from pCold I in E. coli BL21, His-tag removed with thrombin
Kind of assay: inhibition of nitrocefin hydrolysis, […] min preincubation, […]°C. Type of assay: biochemical, Pantoea endophytica.

In the case of `NC(=O)[C@@H]1CC[C@@H]2CN1C(=O)N2OS(=O)(=O)O` [avibactam], 0.0555 µM corresponded to half-maximal inhibition (IC50).
The figure for `C[C@]1(Cn2ccnn2)[C@H](C(=O)O)N2C(=O)C[C@H]2S1(=O)=O` [tazobactam] is 7.96 µM.
